Data on 15 compounds can be found in patent US11124500B2, “Disubstituted pyrazole compounds” (Eli Lilly and Company, priority 2019, dated 2021).

For data set [1] the following is noted: administered for 6 weeks, subjects with NAFLD; cited from earlier work.
For data set [2], the target named is human KHK-C (Homo sapiens (Human), UniProt P50053). In words: KHK enzyme activity assay, human KHK-C (F1P production, RapidFire MS). The data set is classed as biochemical. The note with it: fructose 250 μM, ATP 150 μM; average ± SEM; read-out: hKHK-C IC50. The protocol: (§1) KHK Enzyme Activity Assay for Human KHK-C and Human KHK-A
Chain of human KHK-C (P50053 whole entry): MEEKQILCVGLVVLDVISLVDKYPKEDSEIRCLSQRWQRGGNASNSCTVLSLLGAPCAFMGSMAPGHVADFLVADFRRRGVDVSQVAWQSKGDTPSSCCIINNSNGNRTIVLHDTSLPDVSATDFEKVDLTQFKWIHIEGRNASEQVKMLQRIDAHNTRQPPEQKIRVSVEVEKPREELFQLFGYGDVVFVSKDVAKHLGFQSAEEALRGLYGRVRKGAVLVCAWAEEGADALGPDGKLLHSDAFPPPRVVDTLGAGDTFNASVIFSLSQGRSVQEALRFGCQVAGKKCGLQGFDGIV
(§2) The intrinsic potency for inhibition of KHK C or A activity may be measured using an enzymatic assay which measures the production of FIP. Compounds are prepared in DMSO and tested in a 10-point concentration curve, to create 3-fold serial dilutions of the compounds in a 96-well plate ranging from 20 μM to 1.02 nM. Enzyme is prepared in assay buffer [50 mM 4-(2-hydroxyethyl)piperazine-1-ethanesulfonic acid (HEPES), 10 mM potassium chloride, 100 mM magnesium chloride, 2 mM tris(2-carboxyethyl)phosphine (TCEP), 0.01% n-octyl glucoside] and incubated with compounds at RT for 15 min. The reaction is carried out in 100 μL volumes containing substrate concentrations of fructose (250 μM for KHK-C assay and 1.25 mM for KHK-A assay) and ATP (150 μM for both isoforms); which are further incubated at RT for 20 min. The reaction is then halted by the addition of stop buffer; consisting of 0.2% formic acid and 1 μg/ml ^13C6-fructose-6-phosphate (^13C6-F6P) internal standard. Plates are stored in −20° C. until RapidFire MS analysis.
(§3) RapidFire MS Analysis for Quantitation of F1P
(§4) An Agilent 300 RapidFire automated extraction system (Agilent, Santa Clara, Calif.) with three HPLC quaternary pumps is coupled to an Agilent 6495 triple quadrupole mass spectrometer (Agilent Technologies, Santa Clara, Calif.) equipped with an electrospray ionization (ESI) interface source. The RapidFire Mass Spec system is equipped with a reusable RapidFire C18 (type C) solid-phase extraction (SPE) cartridge (G9205 Å).
(§5) Solvent A, used for sample loading and washing, is 6 mM octylamine (Acros Organics 129495000) brought to pH 5.0 using acetic acid. Solvent B, used for sample elution, is 20% water in ACN containing 0.1% formic acid. Samples are sequentially analyzed by aspirating 10 μL onto the collection loop under vacuum directly from multiwell plates. The 10 μL of sample is loaded onto the C18 cartridge and washed using solvent A at a flow rate of 1.25 mL/min for 5000 ms. The retained analytes are then eluted to the mass spectrometer using solvent B at a flow rate of 1.25 mL/min for 5000 ms. The system is re-equilibrated using solvent at flow rate of 1.25 mL/min for 2000 ms.
(§6) The triple quadrupole mass spectrometer is equipped with an ESI source and analytes are monitored using selected reaction monitoring (SRM) in negative mode [M−H]−. F1P is monitored at m/z 259.02/96.9 and ^13C6-fructose-6-phosphate is monitored at m/z 264.99/97. The area ratio values for F1P is calculated using ^13C6-fructose-6-phospate as internal standard.

The target in data set [3] is human KHK-A (Homo sapiens (Human), UniProt P50053). Nature of the data set: KHK enzyme activity assay, human KHK-A (F1P production, RapidFire MS). The data set is classed as biochemical. The note with it: fructose 1.25 mM, ATP 150 μM; average ± SEM; read-out: hKHK-A IC50. The protocol: as §1, §2, §3, §4, §5, §6
Chain of human KHK-A (P50053 other isoform, or with tags, fused parts or gaps): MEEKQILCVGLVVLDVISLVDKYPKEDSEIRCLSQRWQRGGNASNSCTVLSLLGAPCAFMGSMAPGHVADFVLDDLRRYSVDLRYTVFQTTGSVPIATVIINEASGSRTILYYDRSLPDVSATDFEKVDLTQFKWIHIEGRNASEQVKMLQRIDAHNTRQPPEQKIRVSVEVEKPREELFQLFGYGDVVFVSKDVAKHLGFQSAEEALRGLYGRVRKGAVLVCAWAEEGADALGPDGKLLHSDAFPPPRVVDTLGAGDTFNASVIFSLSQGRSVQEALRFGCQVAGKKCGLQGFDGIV
Data set [4] in a line: Pharmacokinetics in Sprague Dawley rats. The data set is classed as in vivo. The note with it: plasma, rat, fasted; for bioavailability: PO 2 or 3 mg/kg vs IV 1 mg/kg. The protocol: (§7) Liquid Chromatography with Tandem Mass Spectrometry (LC-MS/MS) Method for Pharmacokinetic Assays: Samples are extracted using a protein precipitation by adding 180 μL of MeOH:ACN (1:1, v/v) containing an internal standard to 50 μL of plasma. Samples are then diluted with MeOH:Water (1:1, v/v) to get concentrations within standard curve range. Diluted samples are analyzed by LC-MS/MS using a Sciex API 4000 triple quadrupole mass spectrometer (Applied Biosystems/MDS; Foster City, Calif.) equipped with a TurboIonSpray interface, and operated in positive ion mode. The analytes are chromatographically separated using a ECHELON C18 4 um 20×2.1 mm column. LC conditions are Water/1 M ammonium bicarbonate, (2000:10, v/v) (Mobile Phase A), and MeOH/1 M ammonium bicarbonate, (2000:10, v/v) (Mobile Phase B).
Pharmacokinetics in Sprague Dawley Rats
The compound is administered by a single oral (PO; 2 or 3 mg/kg; volume of 10 mL/kg) or intravenous (IV; 1 mg/kg; volume of 1 mL/kg) dose in vehicle. Blood is collected from each animal at multiple time points between 0 and up to 48 hours post-dosage. The plasma concentrations of Example 1 and Example 2 are determined by a LC-MS/MS method as described above.

Data set [5] can be described thus: Pharmacokinetics in dogs. Type of data set: in vivo. The note with it: beagle, plasma, dog, fed; for bioavailability: PO 2 or 3 mg/kg vs IV 1 mg/kg. The protocol:
as §7
The compound is administered by a single oral (PO; 2 or 3 mg/kg; volume of 2 mL/kg) or intravenous (IV; 1 mg/kg; volume of 1 mL/kg) dose in vehicle. Blood is collected from each animal at multiple time points between 0 and up to 72 hours post-dosage. The plasma concentrations of Example 1 and Example 2 are determined by a LC-MS/MS method as described above.

`C[C@H]1CCN1c1nc(N2C[C@@H]3[C@@H](CC(=O)O)[C@@H]3C2)cc(C(F)(F)F)n1` [PF-06835919]: the “whole liver fat (magnetic resonance imaging-proton density fat fraction)” value in data set [1] is “reduces whole liver fat”.

Broadly, the IC50 is the point on the concentration scale where inhibition reaches its midpoint. A word on the bioavailability: it is the share of a dose that reaches the circulation, judged against a reference dose that is usually intravenous. A higher bioavailability goes with much systemic uptake. For orientation: clearance means the volume of plasma or blood freed of the substance per unit of time. Lower therefore signals inefficient removal. What is called half-life is the time needed for the level to fall by half in the phase considered. Low readings indicate rapid decline, high ones slow decline. As for `OC[C@H]1CCN1c1nc(-c2cnn(C3CCNCC3)c2)cc(C(F)(F)F)n1` [Example 2, [(2R)-1-[4-[1-(4-Piperidyl)pyrazol-4-yl]-6-(trifluoromethyl)pyrimidin-2-yl]azetidin-2-yl]methanol], the IC50 in data set [2] was 134 ± 43.1 nM; in data set [3], 98.2 ± 25 nM. Moreover, the values for the bioavailability in data set [4] and in data set [5] were 95% and around 100%, respectively. Further, the clearance in data set [4] (single IV dose 1 mg/kg) worked out at 56.4 mL/min/kg; in data set [5] (single IV dose 1 mg/kg), 19.6 mL/min/kg. For the same compound, the half-life in data set [4] (single IV dose 1 mg/kg) is 4.29 h; in data set [4] (single PO dose 2 or 3 mg/kg), 5.12 h; in data set [5] (single IV dose 1 mg/kg) it was 10.3 h; in data set [5] (single PO dose 2 or 3 mg/kg) it was 9.79 h.

For `C[C@H]1CCN1c1nc(-c2cnn(CC(=O)N3CCNCC3)c2)cc(C(F)(F)F)n1` [Example 1, 2-[4-[2-[(2S)-2-Methylazetidin-1-yl]-6-(trifluoromethyl)pyrimidin-4-yl]pyrazol-1-yl]-1-piperazin-1-yl-ethanone], the IC50 was determined as 20.7 ± 3.88 nM in data set [2] and 24.2 ± 2.9 nM in data set [3]. For the same compound, the values for the bioavailability in data set [4] and in data set [5] were 83% and 87%, respectively. The clearance amounted to 5.86 mL/min/kg in data set [4] (single IV dose 1 mg/kg) and 3.41 mL/min/kg in data set [5] (single IV dose 1 mg/kg). In addition, the half-life in data set [4] (single IV dose 1 mg/kg) was 12.8 h; in data set [4] (single PO dose 2 or 3 mg/kg) it was 12.9 h; in data set [5] (single IV dose 1 mg/kg), 28 h; in data set [5] (single PO dose 2 or 3 mg/kg), 36.6 h.

`C[C@H]1[C@H](O)CN1c1nc(-c2cnn([C@H]3CCNC3)c2)cc(C(F)(F)F)n1` [Example 15, (2S,3R)-2-Methyl-1-[4-[1-[(3S)-pyrrolidin-3-yl]pyrazol-4-yl]-6-(trifluoromethyl)pyrimidin-2-yl]azetidin-3-ol]: the IC50 in data set [2] was determined as 27.2 ± 8.6 nM; in data set [3], 26.7 ± 3.66 nM.

On to `C[C@H]1CCN1c1nc(-c2cnn(CC(=O)N3C[C@@H](O)[C@H](O)C3)c2)cc(C(F)(F)F)c1C#N` [Example 22, 6-[1-[2-[(3R,4R)-3,4-Dihydroxypyrrolidin-1-yl]-2-oxo-ethyl]pyrazol-4-yl]-2-[(2S)-2-methylazetidin-1-yl]-4-(trifluoromethyl)pyridine-3-carbonitrile], for which the values for the IC50 in data set [2] and in data set [3] were 61.3 ± 57.5 nM and 33.7 ± 17.8 nM, respectively.

Regarding `C[C@@H]1CN(C(=O)Cn2cc(-c3cc(C(F)(F)F)nc(N4CC[C@@H]4C)n3)cn2)[C@@H](C)CN1` [Example 32, 1-[(2S,5R)-2,5-Dimethylpiperazin-1-yl]-2-[4-[2-[(2S)-2-methylazetidin-1-yl]-6-(trifluoromethyl)pyrimidin-4-yl]pyrazol-1-yl]ethanone], the results for the IC50 in data set [2] and in data set [3] were 13.3 nM and 41.5 nM, respectively.

With `C[C@H]1CCN1c1nc(-c2cnn(CC(O)CO)c2)cc(C(F)(F)F)c1C#N` (single isomer, unassigned; isomer 2) [Example 24b], the IC50 was found to be 4.89 nM in data set [2] and 6.75 nM in data set [3].

For the compound `N#Cc1c(C(F)(F)F)cc(-c2cnn(C3CCNCC3)c2)nc1N1CC[C@@H]1CO` [Example 6, 2-[(2R)-2-(Hydroxymethyl)azetidin-1-yl]-6-[1-(4-piperidyl)pyrazol-4-yl]-4-(trifluoromethyl)pyridine-3-carbonitrile], the IC50 in data set [2] came out at 25.7 ± 5.14 nM; in data set [3] it was 15.4 ± 5.05 nM.

For `C[C@H]1CCN1c1nc(-c2cnn(CCO)c2)cc(C(F)(F)F)c1C#N` [Example 11, 6-[1-(2-Hydroxyethyl)pyrazol-4-yl]-2-[(2S)-2-methylazetidin-1-yl]-4-(trifluoromethyl)pyridine-3-carbonitrile], the IC50 in data set [2] came out at 8.03 nM; in data set [3] it was 5.23 nM.

In the case of `C[C@H]1CCN1c1nc(-c2cnn(CC(O)CO)c2)cc(C(F)(F)F)c1C#N` (stereo partly drawn) [Example 24, 6-[1-(2,3-Dihydroxypropyl)pyrazol-4-yl]-2-[(2S)-2-methylazetidin-1-yl]-4-(trifluoromethyl)pyridine-3-carbonitrile], the results for the half-inhibitory concentration (IC50) in data set [2] and in data set [3] were 7.91 nM and 7.29 nM, respectively.

Take `CC(=O)N1CCC(n2cc(-c3cc(C(F)(F)F)c(C#N)c(N4CC[C@@H]4C)n3)cn2)CC1` [Example 19, 6-[1-(1-Acetyl-4-piperidyl)pyrazol-4-yl]-2-[(2S)-2-methylazetidin-1-yl]-4-(trifluoromethyl)pyridine-3-carbonitrile]: the values for the half-inhibitory concentration (IC50) in data set [2] and in data set [3] were 54.3 nM and 29.2 nM, respectively.

As for `C[C@H]1CCN1c1nc(-c2cnn(CC(=O)N3CCN(C)CC3)c2)cc(C(F)(F)F)c1C#N` [Example 20, 2-[(2S)-2-Methylazetidin-1-yl]-6-[1-[2-(4-methylpiperazin-1-yl)-2-oxo-ethyl]pyrazol-4-yl]-4-(trifluoromethyl)pyridine-3-carbonitrile], the half-maximal inhibitory concentration (IC50) worked out at 150 ± 243 nM in data set [2] and 81.8 ± 92.6 nM in data set [3].

Take `C[C@H]1CCN1c1nc(-c2cnn(C3CCN(CCO)CC3)c2)cc(C(F)(F)F)c1C#N` [Example 9, 6-[1-[1-(2-Hydroxyethyl)-4-piperidyl]pyrazol-4-yl]-2-[(2S)-2-methylazetidin-1-yl]-4-(trifluoromethyl)pyridine-3-carbonitrile]: the IC50 is 6.26 nM in data set [2] and 3.58 nM in data set [3].

With `C[C@H]1CCN1c1nc(-c2cnn(C3CCN(C(=O)CN)CC3)c2)cc(C(F)(F)F)c1C#N` [Example 18, 6-[1-[1-(2-Aminoacetyl)-4-piperidyl]pyrazol-4-yl]-2-[(2S)-2-methylazetidin-1-yl]-4-(trifluoromethyl)pyridine-3-carbonitrile], the IC50 turned out to be 59.2 ± 67.8 nM in data set [2] and 35.6 ± 32.4 nM in data set [3].

Regarding `C[C@H]1[C@H](O)CN1c1nc(-c2cnn(C3CCNCC3)c2)cc(C(F)(F)F)c1C#N` [Example 7, 2-[(2S,3R)-3-Hydroxy-2-methyl-azetidin-1-yl]-6-[1-(4-piperidyl)pyrazol-4-yl]-4-(trifluoromethyl)pyridine-3-carbonitrile], the IC50 in data set [2] worked out at 18.1 ± 4.85 nM; in data set [3] it was 6.02 ± 2.27 nM.
